Data: patent US12611387B2, “Compound and composition for inducing neuroprotection” (REST THERAPEUTICS, priority 2020, dated 2026)

How the values were obtained:
non-intoxicated mice = assay: Passive avoidance test, amnestic effect in non-intoxicated mice; format: in vivo; settings: 10 mg/Kg i.p.
From the text: This test measures non-spatial (contextual) long-term memory. The apparatus used for this test was a box with two compartments (15×20×15 cm high), one illuminated with white PVC walls and the other in the dark with black PVC walls and a grid floor. A guillotine door separated the compartments. A 60 W lamp was positioned 40 cm above the box and illuminated the white compartment. Electric shocks (0.3 mA for 3 s) could be delivered to the grid floor using a generator (Lafayette Instruments, Lafayette, USA). The test comprised a training session and a test session. The guillotine door was closed during the training session. Each mouse was placed in the white compartment. After 5 seconds, the door was raised. When the mouse entered the darkened compartment and placed all four feet in contact with the grid floor, the door was closed and the electric shocks were delivered for 3 seconds. The time taken by the mouse to re-enter the darkened compartment (STL-Tg) and the number of vocalizations were recorded. The test session was conducted 24 hours after the training session. Each mouse was placed back into the illuminated white compartment. After 5 s the door was raised, the step-through latency (STL-R), i.e. the time it took the mouse to enter the darkened compartment, was measured. The maximum duration was 300 s. Mice with a STL-Tg>30 s or a STL-Tg and a STL-R<10 s were not considered for the test. […]

lipid peroxidation = assay: Lipid peroxidation in hippocampus, Aβ25-35 oligomer neuroprotection design; format: in vivo, mice; settings: 0.3 mg/Kg
Description: The neuroprotective effect of the compounds, i.e. the ability thereof to protect cells from Aβ25-35 oligomer neurotoxicity and neurodegeneration, is also tested (FIG. 10). The test compounds are thus administered on the same day as the injection of the Aβ25-35 oligomers and are continued to be administered on a daily basis up to day 7 after the injection of the oligomers, at which time the mice are subjected to the YMT, PAT, MWT or ORT. The brain's anatomy is analysed and neuronal cells are counted by immunohistochemistry on mice sacrificed at D13. The biochemical analyses for the quantification of markers of oxidative stress and apoptosis were carried out at D16 on a group of mice that had been subjected to the WMT (FIG. 10). […]
The amount of hydroperoxide present in the samples was measured by quantifying the Fe^3+-xylenol orange complex: in an acidic medium, hydroperoxides oxidise the Fe^2+ to Fe^3+. The latter forms a coloured complex with xylenol orange, the formation whereof was quantified by measuring its absorbance at 580 nm.
After thawing, the hippocampi were homogenised in cold methanol (1/10 w/v), centrifuged at 1000 g for 5 min and the supernatant was collected. […] The absorbance at 580 nm (A5801) was measured and 10 μl of cumene hydroperoxide (CHP, 1 mM) was added and the entirety was incubated for 30 min at ambient temperature. […]

GFAP = assay: Immunohistochemical quantification of GFAP (astrogliosis); format: in vivo, mice; settings: 0.3 mg/Kg i.p.
Description: (§1) The neuroprotective effect of the compounds, i.e. the ability thereof to protect cells from Aβ25-35 oligomer neurotoxicity and neurodegeneration, is also tested (FIG. 10). The test compounds are thus administered on the same day as the injection of the Aβ25-35 oligomers and are continued to be administered on a daily basis up to day 7 after the injection of the oligomers, at which time the mice are subjected to the YMT, PAT, MWT or ORT. The brain's anatomy is analysed and neuronal cells are counted by immunohistochemistry on mice sacrificed at D13. The biochemical analyses for the quantification of markers of oxidative stress and apoptosis were carried out at D16 on a group of mice that had been subjected to the WMT (FIG. 10).
They were previously anaesthetised by i.p. injection of 200 μL of a solution of ketamine (80 mg/Kg) and xylazine (10 mg/Kg), then the tissues were fixed by intracardiac perfusion of 50 mL of a saline solution followed by 50 mL of Antigenfix® fixative (Diapath). The samples were kept for a further 48 hours in the fixative at 4° C., and then the mouse brains were stored in a 30% sucrose solution in PBS, before being sliced.
Slices were taken of each area of the brain, in particular the cortex, the nucleus basalis magnocellularis and the hippocampus (i.e. between bregma +1.8 and bregma −2.8 according to the stereotaxic coordinates of the mouse brain, Paxinos et al., 2004). Serial coronal sections with a thickness of 25 μm were cut with a freezing microtome (Microm HM 450, Thermo Fisher) and stored at −20° C. in a cryoprotective solution. […]
Immunohistochemical labelling is carried out in a conventional manner. […] After rinsing with PBS, the sections were mounted in a mounting fluid (ProLong, ThermoFischer) and images of each section were taken with a confocal fluorescence microscope (Leica SPE) for different sub-regions of the hippocampus such as the stratum radiatum (Rad), the stratum moleculare (Mol), the polymorphic layer of the dentate gyrus (PoDG) and for the cortex, the lateral parietal association area (LPtA). […]

[1] = tested on: Aβ25-35 oligomer-intoxicated mice; assay: Passive avoidance test, neuroprotection design; format: in vivo; settings: doses 0.03; 0.1; 0.3; 1.0 and 3 mg/Kg i.p., neuroprotection design (not shown)
Description: as §1
This test measures non-spatial (contextual) long-term memory. The apparatus used for this test was a box with two compartments (15×20×15 cm high), one illuminated with white PVC walls and the other in the dark with black PVC walls and a grid floor. A guillotine door separated the compartments. A 60 W lamp was positioned 40 cm above the box and illuminated the white compartment. […] The time taken by the mouse to re-enter the darkened compartment (STL-Tg) and the number of vocalizations were recorded. […] After 5 s the door was raised, the step-through latency (STL-R), i.e. the time it took the mouse to enter the darkened compartment, was measured. […]

Row | SMILES | Latency (non-intoxicated mice) | level of lipid peroxidation in the hippocampus (lipid peroxidation) | GFAP labelling (astrocytic response) (GFAP; all brain areas tested (Rad, Mol, PoDG, LPtA)) | protective effect on latency in the passive avoidance test, effective doses [1] | GFAP labelling (astrogliosis) (GFAP; Mol) | GFAP labelling (astrocytic response) (GFAP; PoDG area)
1 | NC12CC3CC(C1)CC(CCF)(C3)C2 [FENM, 3-(2-fluoroethyl)adamantan-1-amine] | 183.0 ± 38.4 s | level equivalent to that of the control group | significantly decreases the astrocytic and microglial response in all of the brain areas tested | procured neuroprotection as regards memory for all doses tested from 0.1 mg/Kg i.p. up to and including 3 mg/Kg |  | 
2 | CC12CC3CC(C)(C1)CC(N)(C3)C2 [memantine, 3,5-Dimethyl-1-adamantanamine, reference compound] | 56.0 ± 31.1 s | did not significantly decrease the level of lipid peroxidation |  | only observed at two of the doses tested (0.1 and 1 mg/Kg i.p.) | no effect on astrogliosis in the Mol | positive effect in the PoDG area
